According to patent US20100119489A1, “Stimulation of Pancreatic Beta Cell Proliferation” (priority 2005, published 2010):

What was measured:
TMEM27 [1] = test: Shedding of TMEM27 from MIN6 cells (immunoblot of supernatant, N-terminus; anti-V5 C-terminus as control); format: cell-based; conditions: 2 hrs in OPTI-MEM
Method: The pancreatic beta-cell line MIN6 was cultured with DMEM medium containing 25 mM glucose, 15% fetal bovine serum, and 5.5 μM 2-mercaptoethanol. MIN6 cells were plated at 50% confluency in 12 well plates and incubated for 24 hrs. Cells were washed with OPTI-MEM (Invitrogen) and incubated with either DMSO or protease inhibitor BB94 (1 μM) for 15 minutes in OPTI-MEM at 37° C. After the above incubation, cells were incubated with DMSO, PMA (Sigma P8139), BB94, or PMA+BB94 for 2 hrs in OPTI-MEM. 30 μl of each supernatant was collected for SDS-PAGE. Immunoblots were performed using anti-TMEM27 antibodies recognizing the N-terminus (cleaved portion) of TMEM27 (FIG. 8). […] Since BB94 is a known inhibitor of serine proteases and metalloproteases, this may indicate that TMEM27 is a substrate of a protease belonging to serine protease or metalloprotease family.

TMEM27 [2] = test: Inhibition of N-glycosylation of TMEM27 in MIN6 cells (SDS-PAGE, immunoblot); format: cell-based; conditions: increasing concentrations of tunicamycin, 12 hours at 37° C.
Method: (§1) (A) MIN6 cells were incubated with increasing amounts of tunicamycin, which inhibits glycosylation at asparagine residues. Addition of DMSO alone to the cells had no effect. (B) Supernatant from MIN6 cells was incubated with N-glycanase. […] Secreted protein was detected with anti-Col-3 antibody. (C) MIN6 cell lysates were incubated with either PBS or cross-linking reagents DTBP and BMH. […] Under reducing conditions, only the monomer was detected in PBS and DTBP-treated cell lysates. In contrast, the dimer persisted in BMH-treated samples as BMH cross-linking could not be reversed.
MIN6 cells that express pV5-TMEM27 were incubated with indicated concentrations of tunicamycin (Sigma) dissolved in DMSO and with DMSO alone for 12 hours at 37° C. Cell lysates were then subjected to SDS-PAGE and immunoblotting with anti-V5 antibody.
TMEM27 contains two predicted N-glycosylation sites at amino acid residues 76 and 93. MIN6 cells were treated with tunicamycin, which inhibits N-glycosylation. Cells were incubated in the presence of increasing concentrations of tunicamycin, and protein extracts were prepared and analyzed by SDS-PAGE and immunoblotting.

[3] = target: the molecule itself; test: chemical cross-linking (DTBP, BMH) of MIN6 cell lysates, reducing and non-reducing SDS-PAGE, immunoblot
Method: as §1
Chemical cross-linking experiments testing whether TMEM27 protein exists as a multimer were conducted. MIN6 cell extracts were incubated in the presence of two different cross-linking reagents; BMH (bismaleimidohexane), a membrane-permeable, non-cleavable compound and DTBP (dimethyl 3,3′-dithiobispropionimidate), a membrane permeable, cleavable compound prior to SDS-PAGE analysis that was performed under reducing and non-reducing conditions. […] However, the protein dimers disappeared under reducing conditions in the presence of DTBP (FIG. 3b). The results were similar in MIN6 cells that endogenously express TMEM27 and in N2A cells that were transiently transfected with TMEM27 expression vector (data not shown).

CCCCCCCCCCCCCC(=O)O[C@@H]1[C@@H](C)[C@@]2(O)[C@@H](C=C(CO)C[C@]3(O)C(=O)C(C)=C[C@@H]23)[C@@H]2C(C)(C)[C@]12OC(C)=O [PMA, phorbol 12-myristate 13-acetate]
expression levels of TMEM27 (C-terminus, anti-V5 antibody control) (TMEM27 [1]): do not change the expression levels of TMEM27

tunicamycin
effect on TMEM27 bands (N-glycosylation) (TMEM27 [2]): Two bands with increased electrophoretic mobility appeared

B1: TMEM27 full-length protein (other, mouse, UniProt Q9ESG4 15-222, looked up)
chain: ELCHPDAENAFKVRLSIRAALGDKAYVWDTDQEYLFRAMVAFSMRKVPNREATEISHVLLCNITQRVSFWFVVTDPSNNYTLPAAEVQSAIRKNRNRINSAFFLDDHTLEFLKIPSTLAPPMEPSVPVWIIVFGVIFCIVTVAIALLVLSGIRQRRRNNKGPPGVEDAEDKCENIITIENGIPCDPLDMKGGHINDGFLTEDERLTPL
modifications: N-glycosylated (predicted N-glycosylation sites at amino acid residues 76 and 93)
notes: Detected in cell or islet lysates (Western blot) and in fixed, permeabilized MIN6 cells; It also differs from the immunizing peptides, so it is not used here; the transgenic construct uses murine cDNA; also called TMEM protein
binding result [3]: binds
